# According to US20070265451A1, “Process for the preparation of oxazolidinones and method of use thereof” (Board of Trustees of Michigan State University, priority 2001, published 2007):
# Experiments:
# [1] = test system: Staphylococcus aureus 29213; test: Broth microdilution MIC, Staphylococcus aureus ATCC 29213; type: cell-based; settings: for MIC: Staphylococcus aureus, ATCC29213, Table 2, read-out: MIC(90-100) SA-ATCC 29213; for MIC(90-100) SA-ATCC 29213: Table 2
# From the text: See, NCCLS document M7-A5. Methods for Dilution Antimicrobial Susceptibility Tests for Bacteria That Grow Aerobically; Approved Standard-Fifth Edition. Volume 20, Number 2. January 2000, (ISBN 1-56238-394-9) and Lorian V. Antibiotics. Laboratory Medicine. 4th ed. Baltimore: Williams and Wilkins, pp. 52-111 (1996). For subsequent testing, the following strains have been used: Staphylococcus aureus NRS4 (992; HIP5836; New Jersey) (Smith et al., New Engl. J. Med. 340: 493-501 (1999); Tenover et al., J. Clin. Microbiol. 36: 1020-1027 (1998)), Staphylococcus aureus NRS3 (963sm; HIP5827; Michigan) (Smith et al., ibid.; Tenover et al., ibid.), Staphylococcus aureus NRS103 (Becker) (Karakawa and Vann, Sem. Infect. Dis. 4: 285 (1982), Staphylococcus aureus NRS102 (Reynolds) Karakawa and Vann, ibid; McMurray et al., JID 162: 759-762 (1990)), Staphylococcus epidermidis NRS101 (ATCC 35984), Streptococcus pneumoniae (ATCC 49619), Enterococcus faecalis (ATCC 51299), and Staphylococcus aureus (ATCC 43300.
# Stock cultures of these strains were obtained by seeding colonies from overnight streak plates (Tryptic Soy Agar II (TSAII) and 5% sheep's blood (SB) agar plates: Becton Dickinson, CA#2211261) into sterile Mueller-Hinton Broth (MHB)(Becton Dickinson, CA#211443) and growing the suspensions to mid-late log phase in 13 mL screw-cap tubes. Glycerol (Sigma, CA#G-6279) was sterilized by autoclaving for 15 minutes at 121° C. in 6 mL volumes, and then stored at 2-8° C. This was diluted to 20% in dH2O, and then added 1:1 (250 μL:250 μL, 10% final glycerol concentration) to the logarithmically growing bacterial suspension of each strain. Tubes were frozen and stored at −70° C. Purity of the stock cultures was tested by thawing one tube of each strain in a water bath at 37° C. and plating them on TSAII with 5% SB. Plates were incubated overnight at 37° C. and colonies were examined for morphology. Growth curves and approximate CFU/mL were also obtained.
# High purity substituted oxazolidinones prepared according to the method of the present invention and a ZYVOX standard (ZYVOX is a trade name for linezolid available from Pharmacia Corporation) were provided by Synthon Corporation, Monmouth Junction, N.J. Compounds were dissolved at 10 mg/mL in DMSO, as after a dilution of approx. 39.0 to reach the desired final starting concentration of 256 ug/ml, the concentration of DMSO is approximately 2.5%. Compounds were then stored at room temperature (25° C.) in the dark.
# Antimicrobial susceptibility screening was as follows. All compounds were initially screened for activity in duplicate at 256 μg/mL (2.5% DMSO), including ZYVOX, the positive control for antimicrobial activity. A single well of bacterially inoculated 2.5% DMSO served as a positive control for bacterial growth, while a well of DMSO inoculated with of 50 μL of sterile 0.9% saline served as a negative growth control. Controls were prepared on every microplate, so that 46 was the maximum number of compounds that were screened per plate. Broth was pipetted into sterile microcentrifuge tubes, to which the compounds were then added (1:19.53 dilution or 2× final concentration). Each tube was vortexed, and 50 μL was immediately transferred to the microplate wells for each strain. Solubility was assessed by visual observation. MB (medium broth solubility) was recorded if the solution appeared only slightly cloudy. LB (low broth solubility) was recorded if the solution was extremely cloudy, and especially if larger, clumpy precipitates formed. Bacteria were grown as described above, although absorbance was measured at 650 nm and bacteria were diluted to an initial OD of 0.12-0.15. Bacteria were then further diluted 1:100 with 0.9% sterile saline. Within 15 minutes of this final dilution, 50 μL of this suspension was added to each well for a final volume of […], and a final bacterial concentration of 1×10^5 CFU/mL (except for the negative control well). Plates were grown as above and all observations were recorded. […]
# [2] = test system: Enterococcus faecalis 29212; test: Broth microdilution MIC, Enterococcus faecalis ATCC 29212; type: cell-based; settings: for MIC: Enterococcus faecalis, ATCC29212, Table 2, read-out: MIC(90-100) EF-ATCC 29212; for MIC(90-100) EF-ATCC 29212: Table 2
SMILES,MIC [1] [µg/mL],MIC [2] [µg/mL],also measured
C=CCN1CC(COS(=O)(=O)c2ccc([N+](=O)[O-])cc2)OC1=O (stereo not drawn) [Compound 108],62.5,,
CC#CCN1CC(COS(=O)(=O)c2ccc([N+](=O)[O-])cc2)OC1=O (stereo not drawn) [Compound 110],31.3,,
C#CCN1CC(COS(=O)(=O)c2ccc([N+](=O)[O-])cc2)OC1=O (stereo not drawn) [Compound 236],31.3,,
O=C1O[C@H](COS(=O)(=O)c2ccc([N+](=O)[O-])cc2)CN1C(=O)C1CC1 [Compound 250],250,,
CN1CC(COS(=O)(=O)c2ccc([N+](=O)[O-])cc2)OC1=O (stereo not drawn) [Compound 266],15.6,,
CC(C)(C)C(=O)CCN1C[C@@H](COS(=O)(=O)c2ccc([N+](=O)[O-])cc2)OC1=O [Compound 272],250,,
CCCCN1CC(COS(=O)(=O)c2ccc(Cl)c3nonc23)OC1=O (stereo not drawn) [Compound 285],,,MIC(90-100) SA-ATCC 29213 [1]: 62.5 µg/mL; MIC(90-100) EF-ATCC 29212 [2]: 250 µg/mL
CCC#CCN1CC(COS(=O)(=O)c2ccc([N+](=O)[O-])cc2)OC1=O (stereo not drawn) [Compound 294],31.3,250,
COc1ccc(C(=O)CN2CC(COS(=O)(=O)c3sc(NC(C)=O)nc3C)OC2=O)c(OC)c1 (stereo not drawn) [Compound 324],62.5,250,
O=C1O[C@H](COS(=O)(=O)c2ccc([N+](=O)[O-])cc2)CN1C(=O)c1ccco1 [Compound 334],62.5,,
CCOC(=O)/C=C/N1CC(COS(=O)(=O)C2=CC=C([N+](=O)[O-])CC2)OC1=O (stereo not drawn) [Compound 388],125,,
O=C(CN1CC(COS(=O)(=O)c2ccc(Cl)c3nonc23)OC1=O)c1ccc(F)cc1 (stereo not drawn) [Compound 401],,,MIC(90-100) SA-ATCC 29213 [1]: 250 µg/mL; MIC(90-100) EF-ATCC 29212 [2]: 62.5 µg/mL
O=C(CN1C[C@@H](COS(=O)(=O)c2ccc([N+](=O)[O-])cc2)OC1=O)N1CCOCC1 [Compound 589],125,,
CC(C)N1C[C@@H](CNS(=O)(=O)c2ccc([N+](=O)[O-])cc2)OC1=O [Compound 860],64,,
CC(C)N1C[C@@H](CNS(=O)(=O)c2ccc([N+](=O)[O-])cc2[N+](=O)[O-])OC1=O [Compound 870],16,,
O=C1O[C@@H](COS(=O)(=O)c2ccc([N+](=O)[O-])cc2)CN1C(=O)C1CC1 [Compound 929],64,,
O=C1O[C@@H](COS(=O)(=O)c2ccc([N+](=O)[O-])cc2)CN1C(=O)c1ccco1 [Compound 942],32,,
CC(C)N1C[C@H](COS(=O)(=O)c2ccc([N+](=O)[O-])cc2)OC1=O [Compound 952],32,,
CC(C)(C)OC(=O)/C=C/N1C[C@@H](COS(=O)(=O)c2ccc([N+](=O)[O-])cc2)OC1=O [Compound 1001],64,125,
CC(=O)OC(C(=O)OC[C@@H]1CN(C)C(=O)O1)c1ccccc1 (stereo partly drawn) [Compound 1097],32,,
CCOC(=O)/C=C/N1C[C@@H](COS(=O)(=O)c2ccc([N+](=O)[O-])cc2)OC1=O [Compound 1160],128,,
CN(C)C(=O)/C=C/N1C[C@@H](COC(=O)c2cc(Cl)sc2Cl)OC1=O [Compound 1629],256,64,
CN(C)C(=O)/C=C/N1C[C@@H](COC(=O)c2csc(-c3ccccc3)n2)OC1=O [Compound 1631],16,16,
CN(C)C(=O)/C=C/N1C[C@@H](COS(=O)(=O)c2ccc([N+](=O)[O-])cc2)OC1=O [Compound 1632],16,64,
O=C1O[C@@H](COc2cccc3c(O)cccc23)CN1c1ccc([N+](=O)[O-])cc1 [Compound 1960],32,8,
O=C1O[C@@H](COc2ccc3c4c2CCCN4CCC3)CN1c1ccc([N+](=O)[O-])cc1 [Compound 1965],32,8,
O=C1NCC(COS(=O)(=O)c2ccc([N+](=O)[O-])cc2)O1 (stereo not drawn) [Compound 1985],8,124,

# More lines, main results first:
MIC [1] [µg/mL],MIC [2] [µg/mL],SMILES,also measured
250,,"CC(C)(C)C(=O)CN1C[C@@H](COS(=O)(=O)c2ccc(Cl)c3nonc23)OC1=O [Compound 34, (S)-3-(3,3-dimethyl-2-butone)-5-(7-chloro-2,1,3-benzoxadiazole-4-sulfonyloxymethyl)-2-oxazolidinone]",
62.5,,C#CCN1CC(COS(=O)(=O)c2ccc(Cl)c3nonc23)OC1=O (stereo not drawn) [Compound 235],
125,,COc1ccc(C(=O)CN2CC(COS(=O)(=O)c3ccc(Cl)c4nonc34)OC2=O)cc1 (stereo not drawn) [Compound 254],
62.5,250,C=CCN1CC(COS(=O)(=O)c2ccc(Cl)c3nonc23)OC1=O (stereo not drawn) [Compound 255],
250,,O=C(CN1C[C@@H](COS(=O)(=O)c2ccc(Cl)c3nonc23)OC1=O)C1CC1 [Compound 260],
125,250,CCC#CCN1CC(COS(=O)(=O)c2ccc(Cl)c3nonc23)OC1=O (stereo not drawn) [Compound 276],
250,,CCOC(=O)CC(C)(C)C(=O)CN1C[C@@H](COS(=O)(=O)c2ccc(Cl)c3nonc23)OC1=O [Compound 291],
250,125,COc1cccc(CN2CC(COS(=O)(=O)c3ccc(Cl)c4nonc34)OC2=O)c1 (stereo not drawn) [Compound 323],
250,31.3,O=C(CN1CC(COS(=O)(=O)c2ccc(Cl)c3nonc23)OC1=O)c1ccc(F)cc1 (stereo not drawn) [Compound 369],
125,,CC(C)(C)CC(=O)CN1C[C@@H](COS(=O)(=O)c2ccc([N+](=O)[O-])cc2)OC1=O [Compound 533],
62.5,,COC(=O)CN1C[C@@H](COS(=O)(=O)c2ccc([N+](=O)[O-])cc2)OC1=O [Compound 669],
250,125,COC(=O)CN1C[C@@H](COS(=O)(=O)c2ccc(Cl)c3nonc23)OC1=O [Compound 674],
62.5,,CCOC(=O)/C=C/N1CC(COS(=O)(=O)c2ccc(Cl)c([N+](=O)[O-])c2)OC1=O (stereo not drawn) [Compound 695],
256,,CCCCN1CC(COS(=O)(=O)c2cccc3nsnc23)OC1=O (stereo not drawn) [Compound 905],
256,,CCOC(=O)CC(C)(C)C(=O)CN1C[C@H](COS(=O)(=O)c2ccc([N+](=O)[O-])cc2)OC1=O [Compound 921],
256,,CCC#CCN1C[C@H](COS(=O)(=O)c2ccc(Cl)c3nonc23)OC1=O [Compound 924],
256,,CN(C)C(=O)CN1C[C@@H](COS(=O)(=O)c2ccc(Cl)c3nonc23)OC1=O [Compound 1026],
256,,COC(=O)CN1C[C@@H](COS(=O)(=O)c2ccc(Cl)c([N+](=O)[O-])c2)OC1=O [Compound 1058],
16,,CC(=O)CN1C[C@@H](COS(=O)(=O)c2ccc([N+](=O)[O-])cc2)OC1=O [Compound 1063],
256,,CC(=O)CN1C[C@@H](COS(=O)(=O)c2ccc(Cl)c3nonc23)OC1=O [Compound 1066],
256,,CC(=O)CN1C[C@@H](COS(=O)(=O)c2ccc(Cl)c([N+](=O)[O-])c2)OC1=O [Compound 1081],
64,128,CCCCN1CC(COS(=O)(=O)c2ccc(Cl)c3nonc23)OC1=O (stereo not drawn) [Compound 1141],
256,128,CCN1C[C@@H](COS(=O)(=O)c2ccc(Cl)c3nonc23)OC1=O [Compound 1196],
256,,CCN1C[C@@H](COS(=O)(=O)c2ccc(Cl)c([N+](=O)[O-])c2)OC1=O [Compound 1210],
